Test results taken from ChEMBL document CHEMBL5465560, “Selectivity Literature for EUbOPEN Chemogenomic Library” (2024).

Experiments:
[1] = molecular target: MAP kinase-interacting serine/threonine-protein kinase 2 (Homo sapiens, UniProt Q9HBH9); experiment: Selectivity interaction (KinomeScan (DiscoverX)) EUB0000092b MKNK2; details: at 10 µM
[2] = molecular target: Dual specificity mitogen-activated protein kinase kinase 1 (Homo sapiens, UniProt Q02750); experiment: Selectivity interaction (Upstate Kinase Profiler service (Millipore)) EUB0000056c MAP2K1; details: at 1 µM
Sequence of Dual specificity mitogen-activated protein kinase kinase 1 (Q02750 whole entry): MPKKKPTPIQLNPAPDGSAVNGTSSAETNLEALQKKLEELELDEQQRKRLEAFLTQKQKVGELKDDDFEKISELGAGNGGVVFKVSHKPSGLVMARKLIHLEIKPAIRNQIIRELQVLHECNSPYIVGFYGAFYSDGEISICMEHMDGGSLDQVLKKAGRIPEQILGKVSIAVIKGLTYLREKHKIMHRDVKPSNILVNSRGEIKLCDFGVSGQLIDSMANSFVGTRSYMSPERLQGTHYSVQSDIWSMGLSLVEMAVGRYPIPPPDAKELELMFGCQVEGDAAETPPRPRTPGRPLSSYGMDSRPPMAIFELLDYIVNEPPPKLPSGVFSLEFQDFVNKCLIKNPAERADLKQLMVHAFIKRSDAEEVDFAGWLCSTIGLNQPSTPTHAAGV

[3] = molecular target: Mitogen-activated protein kinase kinase kinase 11 (Homo sapiens) (UniProt Q16584); experiment: Selectivity interaction (KinomeScan (DiscoverX)) EUB0000655a MAP3K11; details: at 10 µM
Sequence of Mitogen-activated protein kinase kinase kinase 11 (Homo sapiens) (Q16584 whole entry, looked up): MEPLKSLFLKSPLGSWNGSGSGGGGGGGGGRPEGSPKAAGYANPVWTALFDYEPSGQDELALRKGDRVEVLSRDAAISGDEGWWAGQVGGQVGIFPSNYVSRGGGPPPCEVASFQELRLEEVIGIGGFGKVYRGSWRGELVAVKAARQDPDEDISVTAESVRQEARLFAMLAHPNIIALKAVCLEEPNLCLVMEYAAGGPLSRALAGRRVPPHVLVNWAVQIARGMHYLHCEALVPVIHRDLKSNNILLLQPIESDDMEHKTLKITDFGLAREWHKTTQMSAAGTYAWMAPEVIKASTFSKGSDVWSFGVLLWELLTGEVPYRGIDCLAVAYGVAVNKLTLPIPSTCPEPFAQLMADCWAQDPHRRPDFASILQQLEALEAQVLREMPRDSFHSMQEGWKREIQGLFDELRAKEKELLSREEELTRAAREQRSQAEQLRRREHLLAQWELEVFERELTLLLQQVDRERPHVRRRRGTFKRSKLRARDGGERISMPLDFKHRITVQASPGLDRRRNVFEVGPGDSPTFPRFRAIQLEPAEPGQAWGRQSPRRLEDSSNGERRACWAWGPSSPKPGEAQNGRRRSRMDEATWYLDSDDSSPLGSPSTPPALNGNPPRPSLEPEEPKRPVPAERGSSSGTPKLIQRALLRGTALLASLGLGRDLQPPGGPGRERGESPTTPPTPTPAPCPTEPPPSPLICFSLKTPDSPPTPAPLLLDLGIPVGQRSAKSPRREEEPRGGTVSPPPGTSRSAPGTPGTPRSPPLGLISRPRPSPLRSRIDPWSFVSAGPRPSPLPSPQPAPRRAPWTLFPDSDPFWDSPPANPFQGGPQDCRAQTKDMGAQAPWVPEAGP

[4] = tested on: Platelet-derived growth factor receptor alpha (Homo sapiens), P16234 [D842V]; experiment: (§1) Selectivity interaction (ProQinase) EUB0000171b PDGFRA
Sequence of Platelet-derived growth factor receptor alpha (Homo sapiens), P16234 [D842V] (P16234 whole entry D842V): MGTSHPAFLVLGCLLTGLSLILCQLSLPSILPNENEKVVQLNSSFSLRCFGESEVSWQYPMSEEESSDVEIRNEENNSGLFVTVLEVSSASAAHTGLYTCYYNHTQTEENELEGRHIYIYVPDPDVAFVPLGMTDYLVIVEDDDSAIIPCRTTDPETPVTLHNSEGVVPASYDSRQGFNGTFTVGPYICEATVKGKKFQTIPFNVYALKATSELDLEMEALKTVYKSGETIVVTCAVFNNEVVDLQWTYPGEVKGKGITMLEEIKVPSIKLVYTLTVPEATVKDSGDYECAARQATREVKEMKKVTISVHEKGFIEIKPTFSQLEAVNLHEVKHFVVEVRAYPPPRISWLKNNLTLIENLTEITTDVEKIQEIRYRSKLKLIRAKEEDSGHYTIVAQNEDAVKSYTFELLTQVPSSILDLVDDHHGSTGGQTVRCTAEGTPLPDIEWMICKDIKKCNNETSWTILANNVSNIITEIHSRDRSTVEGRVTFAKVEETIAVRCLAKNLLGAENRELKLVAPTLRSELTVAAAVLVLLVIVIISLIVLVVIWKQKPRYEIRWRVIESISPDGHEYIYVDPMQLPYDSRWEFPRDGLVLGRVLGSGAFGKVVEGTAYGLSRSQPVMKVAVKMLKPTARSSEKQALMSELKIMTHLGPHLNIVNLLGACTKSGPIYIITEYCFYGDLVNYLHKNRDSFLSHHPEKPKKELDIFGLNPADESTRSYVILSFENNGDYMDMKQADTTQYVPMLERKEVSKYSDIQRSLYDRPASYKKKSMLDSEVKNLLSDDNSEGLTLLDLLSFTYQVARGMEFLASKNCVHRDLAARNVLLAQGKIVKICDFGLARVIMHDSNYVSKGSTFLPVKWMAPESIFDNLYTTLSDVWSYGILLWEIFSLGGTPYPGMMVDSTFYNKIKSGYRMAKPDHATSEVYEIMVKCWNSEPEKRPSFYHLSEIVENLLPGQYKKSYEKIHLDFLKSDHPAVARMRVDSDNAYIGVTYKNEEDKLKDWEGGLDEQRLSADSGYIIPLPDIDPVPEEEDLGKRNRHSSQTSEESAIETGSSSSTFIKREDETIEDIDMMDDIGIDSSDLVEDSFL

[5] = tested on: Platelet-derived growth factor receptor alpha (Homo sapiens), P16234 [T674I]; experiment: as §1
Sequence of Platelet-derived growth factor receptor alpha (Homo sapiens), P16234 [T674I] (P16234 whole entry T674I): as the sequence (P16234 whole entry D842V) above, with T674I, V842D counted along it

[6] = tested on: Platelet-derived growth factor receptor alpha (Homo sapiens), P16234 [V561D]; experiment: as §1
Sequence of Platelet-derived growth factor receptor alpha (Homo sapiens), P16234 [V561D] (P16234 whole entry V561D): as the sequence (P16234 whole entry D842V) above, with V561D, V842D counted along it

[7] = molecular target: Platelet-derived growth factor receptor alpha (Homo sapiens, UniProt P16234); experiment: as §1
Sequence of Platelet-derived growth factor receptor alpha (P16234 whole entry): as the sequence (P16234 whole entry D842V) above, with V842D counted along it

[8] = molecular target: T1, Muscarinic acetylcholine receptor M1 (Homo sapiens) (UniProt P11229); experiment: Selectivity interaction (Panel of kinases, GPCRs, ion channels and transporters (enzymatic assay)) EUB0000266bCl CHRM1
T1 sequence (whole entry): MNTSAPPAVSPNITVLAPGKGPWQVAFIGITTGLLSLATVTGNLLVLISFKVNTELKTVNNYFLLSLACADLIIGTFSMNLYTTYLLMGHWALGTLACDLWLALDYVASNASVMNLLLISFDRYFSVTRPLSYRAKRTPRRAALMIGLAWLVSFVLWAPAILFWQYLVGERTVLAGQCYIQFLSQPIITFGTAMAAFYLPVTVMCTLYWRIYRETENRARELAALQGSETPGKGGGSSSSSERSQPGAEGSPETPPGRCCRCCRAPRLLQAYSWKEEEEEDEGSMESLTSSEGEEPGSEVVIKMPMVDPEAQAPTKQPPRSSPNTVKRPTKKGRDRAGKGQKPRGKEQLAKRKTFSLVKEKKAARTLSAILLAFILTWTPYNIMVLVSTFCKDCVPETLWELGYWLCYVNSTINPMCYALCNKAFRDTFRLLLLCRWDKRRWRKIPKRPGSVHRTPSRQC

[9] = molecular target: T2, Ephrin type-A receptor 3 (Homo sapiens) (UniProt P29320); experiment: Selectivity interaction (Kinase panel (Invitrogen)) EUB0000639a EPHA3; details: at 200 nM
T2 sequence (whole entry): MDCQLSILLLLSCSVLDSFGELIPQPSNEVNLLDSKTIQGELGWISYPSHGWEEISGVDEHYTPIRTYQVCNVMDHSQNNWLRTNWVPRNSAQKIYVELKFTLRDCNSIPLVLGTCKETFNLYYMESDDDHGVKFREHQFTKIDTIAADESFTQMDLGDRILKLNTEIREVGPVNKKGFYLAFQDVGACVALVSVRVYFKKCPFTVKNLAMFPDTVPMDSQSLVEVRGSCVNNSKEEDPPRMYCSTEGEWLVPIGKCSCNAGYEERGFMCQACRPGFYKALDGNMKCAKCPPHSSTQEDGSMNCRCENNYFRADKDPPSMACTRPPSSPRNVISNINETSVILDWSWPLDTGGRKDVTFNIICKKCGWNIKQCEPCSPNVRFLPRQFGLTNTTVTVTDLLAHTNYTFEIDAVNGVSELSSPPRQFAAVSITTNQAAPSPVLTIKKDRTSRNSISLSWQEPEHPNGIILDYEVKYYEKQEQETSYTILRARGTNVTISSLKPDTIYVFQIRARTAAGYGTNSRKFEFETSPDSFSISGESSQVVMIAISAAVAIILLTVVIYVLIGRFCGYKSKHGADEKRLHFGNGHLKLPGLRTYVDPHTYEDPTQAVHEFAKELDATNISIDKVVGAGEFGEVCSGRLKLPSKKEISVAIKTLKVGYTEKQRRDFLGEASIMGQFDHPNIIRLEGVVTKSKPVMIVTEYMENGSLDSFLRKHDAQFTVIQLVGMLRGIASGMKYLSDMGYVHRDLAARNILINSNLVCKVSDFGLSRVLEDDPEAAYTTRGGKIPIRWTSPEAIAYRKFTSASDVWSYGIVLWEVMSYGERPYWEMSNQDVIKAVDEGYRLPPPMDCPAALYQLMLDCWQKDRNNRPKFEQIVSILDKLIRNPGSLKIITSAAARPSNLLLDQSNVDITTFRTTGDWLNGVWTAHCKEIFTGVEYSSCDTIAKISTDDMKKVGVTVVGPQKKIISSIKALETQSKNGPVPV

[10] = molecular target: Type-1 angiotensin II receptor (Homo sapiens) (UniProt P30556); experiment: Selectivity interaction (Eurofins CEREP Diversity Profile (receptors and ion channels)) EUB0000279b AGTR1; details: at 10 µM
Sequence of Type-1 angiotensin II receptor (Homo sapiens) (P30556 whole entry): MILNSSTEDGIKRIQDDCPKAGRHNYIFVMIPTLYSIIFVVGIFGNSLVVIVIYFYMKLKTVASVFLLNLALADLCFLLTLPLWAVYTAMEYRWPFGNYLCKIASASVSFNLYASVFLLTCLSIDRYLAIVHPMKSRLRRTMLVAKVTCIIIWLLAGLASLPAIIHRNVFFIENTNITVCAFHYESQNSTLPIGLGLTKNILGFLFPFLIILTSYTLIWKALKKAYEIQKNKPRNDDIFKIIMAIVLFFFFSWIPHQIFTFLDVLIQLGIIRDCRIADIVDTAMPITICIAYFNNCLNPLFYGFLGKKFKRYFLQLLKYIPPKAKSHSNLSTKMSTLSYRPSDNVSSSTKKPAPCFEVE

[11] = molecular target: T3, Inhibitor of nuclear factor kappa-B kinase subunit epsilon (Homo sapiens) (UniProt Q14164); experiment: Selectivity interaction (ActivX KiNativ screen (ex vivo kinase selectivity in human PBMCs)) EUB0001619a IKBKE; type: cell-based; details: PBMC, at 1 µM
T3 sequence (whole entry): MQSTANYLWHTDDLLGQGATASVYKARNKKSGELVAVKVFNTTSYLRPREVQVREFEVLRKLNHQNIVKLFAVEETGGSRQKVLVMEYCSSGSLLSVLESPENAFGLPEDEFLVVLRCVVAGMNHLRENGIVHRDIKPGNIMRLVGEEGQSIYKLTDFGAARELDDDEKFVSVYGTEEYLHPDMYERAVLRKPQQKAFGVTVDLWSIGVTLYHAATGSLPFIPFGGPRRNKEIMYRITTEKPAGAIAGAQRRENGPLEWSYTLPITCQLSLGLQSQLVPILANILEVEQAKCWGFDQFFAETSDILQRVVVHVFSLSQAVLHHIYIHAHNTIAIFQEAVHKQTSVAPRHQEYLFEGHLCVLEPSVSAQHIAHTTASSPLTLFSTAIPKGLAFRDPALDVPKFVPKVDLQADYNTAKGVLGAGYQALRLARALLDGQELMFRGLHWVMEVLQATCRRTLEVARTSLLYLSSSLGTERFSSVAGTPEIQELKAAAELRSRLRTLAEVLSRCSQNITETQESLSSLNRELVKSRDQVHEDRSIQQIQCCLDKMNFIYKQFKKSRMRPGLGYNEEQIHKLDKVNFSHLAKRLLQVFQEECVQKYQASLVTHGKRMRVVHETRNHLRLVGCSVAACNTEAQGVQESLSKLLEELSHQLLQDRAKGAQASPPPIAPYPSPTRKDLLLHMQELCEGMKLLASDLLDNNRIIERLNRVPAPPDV

Sequence of MAP kinase-interacting serine/threonine-protein kinase 2 (Q9HBH9 whole entry, looked up): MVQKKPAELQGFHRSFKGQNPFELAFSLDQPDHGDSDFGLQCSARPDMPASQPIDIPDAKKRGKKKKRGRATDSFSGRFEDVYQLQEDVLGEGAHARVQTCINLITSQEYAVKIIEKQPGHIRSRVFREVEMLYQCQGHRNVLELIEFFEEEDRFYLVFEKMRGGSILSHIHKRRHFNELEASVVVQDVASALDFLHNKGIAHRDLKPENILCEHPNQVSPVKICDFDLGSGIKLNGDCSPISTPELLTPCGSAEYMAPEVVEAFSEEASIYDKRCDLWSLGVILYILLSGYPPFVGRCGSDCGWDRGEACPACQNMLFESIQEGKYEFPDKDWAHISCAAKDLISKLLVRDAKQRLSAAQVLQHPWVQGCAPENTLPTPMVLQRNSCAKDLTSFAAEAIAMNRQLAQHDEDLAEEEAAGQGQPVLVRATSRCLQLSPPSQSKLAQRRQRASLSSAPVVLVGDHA

## CCC(=O)N1CCN(c2ccc(-n3c(=O)ccc4cnc5ccc(-c6cnc7ccccc7c6)cc5c43)cc2C(F)(F)F)CC1
[1]
  % of control: 54%

## Cc1ccc(-c2ccc3c(ccc4sc5c(c43)NC[C@@H](C)NC5=O)n2)cn1
[2]
  % of inhibition: -8%

## CN(C)CCOc1ccc(-c2nc(-c3ccncc3)c(-c3ccc4c(c3)CC/C4=N\O)[nH]2)cc1
[3]
  % of control: 100%

## C=CC(=O)Nc1cccc(C(=O)Nc2ccc(Nc3cc(-c4[nH]c(SC)nc4C)ccn3)cc2)c1
[4]; at 1 µM
  % of control: 68%
[4]; at 5 µM
  % of control: 41%
[5]; at 1 µM
  % of control: 96%
[5]; at 5 µM
  % of control: 84%
[6]; at 1 µM
  % of control: 91%
[6]; at 5 µM
  % of control: 68%
[7]; at 1 µM
  % of control: 97%
[7]; at 5 µM
  % of control: 72%

## CCn1c(-c2nc3cc(C(=O)N4CCCC(N)C4)ccc3n2C)cc2ccccc21 (stereo not given)
[8]
  pXC50: < 4.8 M

## CC[C@@H]1[C@H](F)C(=O)N[C@@H]1COc1nccc2cc(C(N)=O)c(OC)cc12 [ZIMLOVISERTIB]
[9]
  % of inhibition: 0.984%

## CC(=O)c1cc(-c2ccccc2OCC2CC2)c2ncccn12
[10]
  % of control: 91%

## N#Cc1cccc(-c2c[nH]c3ncnc(N4CCOCC4)c23)c1
[11]
  % of inhibition: 7%
